The target of experiment [1] is mTOR (Mus musculus, UniProt Q9JLN9). The format is cell-based.
Experiment [2] concerns the target Human mTORC1 complex (Homo sapiens, UniProt P42345). Briefly: In vitro mTORC1 kinase assay. In kind it is biochemical.

In the case of `CC(=O)N1CCN(c2ccc(-n3c(=O)ccc4cnc5ccc(-c6cnc7ccccc7c6)cc5c43)cc2C(F)(F)F)CC1` [Compound 7, 1-(4-(4-acetylpiperazin-1-yl)-3-(trifluoromethyl)phenyl)-9-(quinolin-3-yl)benzo[h][1,6]naphthyridin-2(1H)-one], the EC50 (in general, the concentration at which the effect is half-maximal) in experiment [1] was found to be 3 nM. Moreover, the “improved mTOR cellular potency compared to screening hit compound 1” value in experiment [1] (relative to compound 1) was 1000 fold. Also, in experiment [1] (relative to compound 8), the “improvement in cellular potency, 7 versus 8” value was found to be 13 fold.

As to `COCCC(=O)N1CCN(c2ccc(Nc3ccnc4ccc(-c5cnc6ccccc6c5)cc34)cc2C(F)(F)F)CC1` [Compound 16], the IC50 (usually the midpoint of a concentration-inhibition curve) in experiment [2] came out at 82.6 nM; in experiment [1], 40 nM.

Source of the values: article PMC3893826 (Journal of medicinal chemistry, 2010).
